The source made the active and inactive calls. The calls are words filed in the database; no cut-off is given here.
How the values were obtained:
Mus musculus [1] = test: Anti-inflammatory activity in DSS-induced ulcerative colitis C57BL/6 mouse model assessed as effect on neutrophil serine proteases level at 60 mg/kg, administered twice daily; type: functional, organism-based
[2] = molecular target: T1, Cathepsin G (Homo sapiens) (UniProt P08311); test: Inhibition of Cathepsin G in human U-937 cells using N-Suc-Ala-Ala-Pro-Phe-pNA as substrate at 10 uM incubated for 5 days by […] based microplate reader analysis relative to control; type: cell-based; conditions: time 5.0 day
T1 sequence (whole entry): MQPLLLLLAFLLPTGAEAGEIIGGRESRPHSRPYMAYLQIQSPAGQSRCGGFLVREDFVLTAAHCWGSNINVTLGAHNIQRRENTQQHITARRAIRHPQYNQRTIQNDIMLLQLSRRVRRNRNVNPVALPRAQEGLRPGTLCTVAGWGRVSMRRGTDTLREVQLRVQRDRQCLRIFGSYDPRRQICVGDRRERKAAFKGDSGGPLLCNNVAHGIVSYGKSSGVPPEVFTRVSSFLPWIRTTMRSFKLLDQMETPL

Mus musculus [3] = test: Anti-inflammatory activity in DSS-induced ulcerative colitis C57BL/6 mouse model assessed as effect on Cathepsin C activity at 60 mg/kg, administered twice daily; type: functional, organism-based
[4] = molecular target: T2, Neutrophil elastase (Homo sapiens) (UniProt P08246); test: Inhibition of neutrophil elastase in human U-937 cells using N-MeSuc-Ala-Pro-Val-pNA as substrate at 10 uM incubated for 5 days by […] based microplate reader analysis relative to control; type: cell-based; conditions: time 5.0 day
T2 sequence (whole entry): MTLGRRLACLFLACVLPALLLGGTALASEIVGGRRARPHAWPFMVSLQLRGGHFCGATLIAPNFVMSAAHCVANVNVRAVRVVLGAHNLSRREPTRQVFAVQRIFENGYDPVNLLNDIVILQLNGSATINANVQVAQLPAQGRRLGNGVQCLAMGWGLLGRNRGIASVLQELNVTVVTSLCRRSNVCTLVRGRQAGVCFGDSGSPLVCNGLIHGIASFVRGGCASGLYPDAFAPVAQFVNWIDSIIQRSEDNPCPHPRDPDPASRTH

RAW264.7 [5] = test: Anti-inflammatory activity in mouse RAW264.7 cells assessed as inhibition of LPS-induced IL-1beta production at 5 uM preincubated for 1 hr followed by LPS addition and measured after 24 hrs by ELISA relative to control; type: functional; set-up: scale not given: the % may be the effect or the level left
Dipeptidyl peptidase 1 [6] = molecular target: T3, Dipeptidyl peptidase 1 (Homo sapiens, UniProt P53634); test: Inhibition of Cathepsin C in human U-937 cells using H-Gly-Arg-AMC as substrate at 10 uM incubated for 5 days by fluorescence based microplate reader analysis relative to control; type: cell-based; conditions: time 5.0 day
T3 sequence (P53634 25-134 limits assumed): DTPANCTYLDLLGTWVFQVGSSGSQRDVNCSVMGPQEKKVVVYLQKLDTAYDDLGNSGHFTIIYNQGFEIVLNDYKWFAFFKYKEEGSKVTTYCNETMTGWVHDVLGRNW
T3 sequence (P53634 231-394 limits assumed): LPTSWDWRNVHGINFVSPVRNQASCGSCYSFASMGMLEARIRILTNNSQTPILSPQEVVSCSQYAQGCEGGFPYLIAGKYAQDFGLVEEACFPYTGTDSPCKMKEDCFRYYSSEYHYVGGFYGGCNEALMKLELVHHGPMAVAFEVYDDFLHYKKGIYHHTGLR
T3 sequence (P53634 395-463 limits assumed): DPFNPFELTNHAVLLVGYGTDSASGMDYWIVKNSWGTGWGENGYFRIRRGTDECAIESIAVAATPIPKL

RAW264.7 [7] = test: Anti-inflammatory activity in mouse RAW264.7 cells assessed as inhibition of LPS-induced NO production preincubated for 1 hr followed by LPS addition and measured after 24 hrs by Griess reagent based assay; type: functional, cell-based
RAW264.7 [8] = test: Anti-inflammatory activity in mouse RAW264.7 cells assessed as inhibition of LPS-induced TNF-alpha production at 5 uM preincubated for 1 hr followed by LPS addition and measured after 24 hrs by ELISA relative to control; type: functional; set-up: scale not given: the % may be the effect or the level left
[9] = molecular target: T4, Myeloblastin (Homo sapiens) (UniProt P24158); test: Inhibition of proteinase 3 in human U-937 cells using aminobenzoyl-Val-Ala-Asp-Cys-Ala-Asp-Gln-ethylenediamine 2,4-dinitrophenyl as substrate at 10 uM incubated for 5 days by fluorescence based microplate reader analysis relative to control; type: cell-based; conditions: time 5.0 day
T4 sequence (whole entry): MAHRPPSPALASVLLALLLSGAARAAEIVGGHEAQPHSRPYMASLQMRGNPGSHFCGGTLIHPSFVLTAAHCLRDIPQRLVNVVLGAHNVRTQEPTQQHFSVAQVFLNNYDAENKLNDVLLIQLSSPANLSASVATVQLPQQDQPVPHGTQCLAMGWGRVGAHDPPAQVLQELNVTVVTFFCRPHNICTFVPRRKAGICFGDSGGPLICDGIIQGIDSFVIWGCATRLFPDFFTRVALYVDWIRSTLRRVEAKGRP

Mus musculus [10] = test: Anti-inflammatory activity in DSS-induced ulcerative colitis male C57BL/6 mouse model assessed as reduction in Cathepsin C level in colon at 60 mg/kg administered via gavage for 10 days; type: functional; conditions: time 10.0 day
Mus musculus [11] = test: Anti-inflammatory activity in DSS-induced ulcerative colitis male C57BL/6 mouse model assessed as reduction in Cathepsin C level in serum at 60 mg/kg administered via gavage for 10 days relative to control; type: functional; conditions: time 10.0 day
Mus musculus [12] = test: Anti-inflammatory activity in DSS-induced ulcerative colitis male C57BL/6 mouse model assessed as reduction in neutrophil elastase level in colon at 60 mg/kg administered via gavage for 10 days relative to control; type: functional; conditions: time 10.0 day
Mus musculus [13] = test: Anti-inflammatory activity in DSS-induced ulcerative colitis male C57BL/6 mouse model assessed as reduction in neutrophil elastase level in serum at 60 mg/kg administered via gavage for 10 days relative to control; type: functional; conditions: time 10.0 day
Mus musculus [14] = test: Anti-inflammatory activity in DSS-induced ulcerative colitis male C57BL/6 mouse model assessed as reduction in Cathepsin G level in colon at 60 mg/kg administered via gavage for 10 days relative to control; type: functional; conditions: time 10.0 day
Mus musculus [15] = test: Anti-inflammatory activity in DSS-induced ulcerative colitis male C57BL/6 mouse model assessed as reduction in Cathepsin G level in serum at 60 mg/kg administered via gavage for 10 days relative to control; type: functional; conditions: time 10.0 day
Mus musculus [16] = test: Anti-inflammatory activity in DSS-induced ulcerative colitis male C57BL/6 mouse model assessed as reduction in proteinase 3 level in colon at 60 mg/kg administered via gavage for 10 days relative to control; type: functional; conditions: time 10.0 day
Dipeptidyl peptidase 1 [17] = molecular target: T3, Dipeptidyl peptidase 1; test: Inhibition of human recombinant Cathepsin C using Gly-Phe-AFC as substrate preincubated for 3 hrs followed by substrate addition and measured after 1 hr by fluorescence based multifunctional microplate reader analysis

## Cn1c(=O)oc2ccc(-c3ccc(C[C@@H](C#N)NC(=O)[C@@H]4CNCCCO4)cc3)cc21 [BRENSOCATIB]
Mus musculus [1]
  Activity: Active
[2]
  inhibition: 12.1%
Mus musculus [3]
  Activity: Active
[4]
  inhibition: 8.29%
RAW264.7 [5]; time 25 hrs
  Activity: 70.9%
Dipeptidyl peptidase 1 [6]
  inhibition: 10.1%
RAW264.7 [7]
  IC50: 6.7 µM
RAW264.7 [8]; time 25 hrs
  Activity: 65.1%
[9]
  inhibition: 16.7%

## Nc1ccc(O)c(C(=O)O)c1
Mus musculus [10]
  Activity: Active
Mus musculus [11]
  Activity: Active
Mus musculus [12]
  Activity: Active
Mus musculus [13]
  Activity: Active
Mus musculus [14]
  Activity: Active
Mus musculus [15]
  Activity: Active
Mus musculus [16]
  Activity: Active

## CC(=O)Nc1ccccc1NC(=O)c1cccc(-c2ccc(CN3CCOCC3)cc2)c1
RAW264.7 [5]; time 25.0 hrs
  Activity: inactive
Dipeptidyl peptidase 1 [17]
  IC50: 0.9 µM
RAW264.7 [7]
  IC50: > 50 µM
RAW264.7 [8]; time 25.0 hrs
  Activity: inactive

## Cc1ccccc1NC(=O)c1cccc(-c2ccc(CN3CCOCC3)cc2)c1
RAW264.7 [5]; time 25.0 hrs
  Activity: inactive
Dipeptidyl peptidase 1 [17]
  IC50: > 1 µM
RAW264.7 [7]
  IC50: > 50 µM
RAW264.7 [8]; time 25.0 hrs
  Activity: inactive

## CCc1ccc(NC(=O)c2cccc(-c3ccc(CN4CCOCC4)cc3)c2)cc1
RAW264.7 [5]; time 25.0 hrs
  Activity: inactive
Dipeptidyl peptidase 1 [17]
  IC50: > 1 µM
RAW264.7 [7]
  IC50: > 50 µM
RAW264.7 [8]; time 25.0 hrs
  Activity: inactive

## O=C1Nc2c(cccc2-c2ccccc2)/C1=C/c1ccnc2ccccc12
RAW264.7 [5]; time 25.0 hrs
  Activity: inactive
Dipeptidyl peptidase 1 [17]
  IC50: > 1 µM
RAW264.7 [7]
  IC50: > 50 µM
RAW264.7 [8]; time 25.0 hrs
  Activity: inactive

## Nc1cccc(NC(=O)c2cccc(-c3ccc(CN4CCOCC4)cc3)c2)c1
RAW264.7 [5]; time 25.0 hrs
  Activity: inactive
Dipeptidyl peptidase 1 [17]
  IC50: > 1 µM
RAW264.7 [7]
  IC50: > 50 µM
RAW264.7 [8]; time 25.0 hrs
  Activity: inactive

## CC(=O)c1ccc(-c2cccc3c2NC(=O)/C3=C\c2ccnc3ccccc23)cc1
RAW264.7 [5]; time 25.0 hrs
  Activity: inactive
Dipeptidyl peptidase 1 [17]
  IC50: 0.293 µM
RAW264.7 [7]
  IC50: 16.8 µM
RAW264.7 [8]; time 25.0 hrs
  Activity: inactive

## O=C1Nc2c(cccc2-c2ccc(CN3CCNCC3)cc2)/C1=C/c1ccnc2ccccc12
RAW264.7 [5]; time 25 hrs
  Activity: 82.5%
Dipeptidyl peptidase 1 [17]
  IC50: 0.128 µM
RAW264.7 [7]
  IC50: 5.1 µM
RAW264.7 [8]; time 25 hrs
  Activity: 68.7%

## CC(C)c1ccccc1NC(=O)c1cccc(-c2ccc(CN3CCOCC3)cc2)c1
RAW264.7 [5]; time 25.0 hrs
  Activity: inactive
Dipeptidyl peptidase 1 [17]
  IC50: > 1 µM
RAW264.7 [7]
  IC50: > 50 µM
RAW264.7 [8]; time 25.0 hrs
  Activity: inactive

## O=C1Nc2c(cccc2-c2ccc3[nH]ccc3c2)/C1=C/c1ccnc2ccccc12
RAW264.7 [5]; time 25 hrs
  Activity: 63.5%
Dipeptidyl peptidase 1 [17]
  IC50: 0.195 µM
RAW264.7 [7]
  IC50: 6.8 µM
RAW264.7 [8]; time 25 hrs
  Activity: 43.2%

## O=C(Nc1cccc2ccccc12)c1cccc(-c2ccc(CN3CCOCC3)cc2)n1
RAW264.7 [5]; time 25 hrs
  Activity: 68.5%
Dipeptidyl peptidase 1 [17]
  IC50: 0.253 µM
RAW264.7 [7]
  IC50: 10 µM
RAW264.7 [8]; time 25 hrs
  Activity: 59.6%

## CCc1ccccc1NC(=O)c1cccc(-c2ccc(CN3CCOCC3)cc2)c1
RAW264.7 [5]; time 25.0 hrs
  Activity: inactive
Dipeptidyl peptidase 1 [17]
  IC50: > 1 µM
RAW264.7 [7]
  IC50: > 50 µM
RAW264.7 [8]; time 25.0 hrs
  Activity: inactive
